Values quoted from earlier work as cited in patent US20060172014A1, “Treatment of lung cancer with active vitamin D compounds in combination with other treatments” (Novacea, Inc., priority 2003, published 2006).

How the values were obtained:
[1] = tested on: patients with refractory malignancies; conditions: weekly HDPA of calcitriol; Beer et al.

- Mean peak calcitriol levels [1]: within the therapeutic range
SMILES: C=C1/C(=C\C=C2/CCC[C@]3(C)[C@@H]([C@H](C)CCCC(C)(C)O)CC[C@@H]23)C[C@@H](O)C[C@@H]1O [calcitriol, 1α,25-dihydroxyvitamin D3]
- Dose-limiting toxicity [1]: no dose-limiting toxicity
- Growth of lung cancer cell line (lung cancer cell line; cell line containing high levels of vitamin D receptor): inhibit the growth
- Growth of lung cancer cell lines (lung cancer cell line; cell lines having insignificant levels of the receptor): not
